Experimental data from patent US6900219B2, “ABCA-1 elevating compounds” (CV Therapeutics, Inc., priority 2002, dated 2005).

What follows are molecules tested on ABCA-1 gene (assay: compounds tested and found to elevate cellular expression of the ABCA-1 gene (Examples 1-6; test not named)).
Format: cell-based
Description: Activity testing is conducted as described in those patents and patent applications referenced above, and in the Examples below, and by methods apparent to one skilled in the art.

Molecule | cellular expression of the ABCA-1 gene
O=C(Nc1ncc(-c2ccccc2)s1)C1CCCC1 [cyclopentyl-N-(5-phenyl(1,3-thiazol-2-yl))carboxamide] | elevate cellular expression of the ABCA-1 gene
[4-(tert-butyl)phenyl]-N-(4-naphthyl(1,3-thiazol-2-yl))carboxamide | elevate cellular expression of the ABCA-1 gene
CCc1ccc(C(=O)N(C/C=C/c2ccccc2)c2ccc(Br)cc2)cc1 [N-((2E)-3-phenylprop-2-enyl)-N-(4-bromophenyl)(4-ethylphenyl)carboxamide] | elevate cellular expression of the ABCA-1 gene
Cc1onc(-c2ccccc2Cl)c1C(=O)Nc1ncc(-c2ccccc2)s1 [[3-(2-chlorophenyl)-5-methylisoxazol-4-yl]-N-(5-phenyl(1,3-thiazol-2-yl))carboxamide] | elevate cellular expression of the ABCA-1 gene
CCc1c(C(=O)N2CCN(C(=O)C(c3ccccc3)c3ccccc3)C(C)C2)cnn1-c1nc(-c2ccc(Cl)cc2)cs1 (stereo not shown) [1-(4-{1-[4-(4-chloro-phenyl)-thiazol-2-yl]-5-ethyl-1H-pyrazole-4-carbonyl}-2-methyl-piperazin-1-yl)-2,2-diphenyl-ethanone] | elevate cellular expression of the ABCA-1 gene
N#Cc1ccc(C(=O)NC2=NCCS2)cc1 [(4-cyanophenyl)-N-(1,3-thiazolin-2-yl)carboxamide] | elevate cellular expression of the ABCA-1 gene
O=C(Nc1ccc(Cl)cc1)c1ccc(Cl)cc1 [(4-chlorophenyl)-N-(4-chlorophenyl)carboxamide] | elevate cellular expression of the ABCA-1 gene
CCOC(=O)Cc1csc(NC(=O)Nc2ccccc2F)n1 [ethyl 2-(2-{[(2-fluorophenyl)amino]carbonylamino}-1,3-thiazol-4-yl)acetate] | elevate cellular expression of the ABCA-1 gene
O=C(Nc1nc2ccccc2s1)c1cnn(-c2ccc(Cl)cc2)c1C(F)(F)F [N-benzothiazol-2-yl[1-(4-chlorophenyl)-5-(trifluoromethyl)pyrazol-4-yl]carboxamide] | elevate cellular expression of the ABCA-1 gene
O=C(CCC1CCCC1)Nc1nc2ccccc2s1 [N-benzothiazol-2-yl-3-cyclopentylpropanamide] | elevate cellular expression of the ABCA-1 gene
COc1cccc(Nc2nc3ccccc3s2)c1 [benzothiazol-2-yl-(3-methoxyphenyl)amine] | elevate cellular expression of the ABCA-1 gene
Cc1ccc(-n2ncc(N(C)n3cccc3)c(Cl)c2=O)cc1 [4-chloro-2-(4-methylphenyl)-5-(methylpyrrolylamino)-2-hydropyridazin-3-one] | elevate cellular expression of the ABCA-1 gene
COc1ccc(CCN(Cc2ccc(C(C)(C)C)cc2)C(=O)c2ccco2)cc1OC [N-[2-(3,4-dimethoxyphenyl)ethyl]-N-{[4-(tert-butyl)phenyl]methyl}-2-furylcarboxamide] | elevate cellular expression of the ABCA-1 gene
CCCc1c(C(=O)Nc2nc3ccccc3s2)cnn1-c1ccc(Cl)cc1 [N-benzothiazol-2-yl[1-(4-chlorophenyl)-5-propylpyrazol-4-yl]carboxamide] | elevate cellular expression of the ABCA-1 gene
N#Cc1ccc(C(=O)Nc2nc(-c3ccc4ccccc4c3)cs2)cc1 [(4-cyanophenyl)-N-(4-(2-naphthyl)(1,3-thiazol-2-yl))carboxamide] | elevate cellular expression of the ABCA-1 gene
CCNC(=O)N(Cc1ccco1)C(C)c1nc2ccccc2c(=O)n1-c1ccc(Br)cc1 (stereo not shown) [N-{[3-(4-bromophenyl)-4-oxo(3-hydroquinazolin-2-yl)]ethyl}(ethylamino)-N-(2-furylmethyl)carboxamide] | elevate cellular expression of the ABCA-1 gene
CCCN(C(=O)Nc1ccc(Br)cc1)C(C)c1nc2cc(Cl)ccc2c(=O)n1-c1ccc(C)cc1 (stereo not shown) [3-(4-bromo-phenyl)-1-[1-(7-chloro-4-oxo-3-p-tolyl-3,4-dihydro-quinazolin-2-yl)-ethyl]-1-propyl-urea] | elevate cellular expression of the ABCA-1 gene
O=C(Nc1nc(-c2ccc(Cl)cc2)cs1)c1ccc(C(F)(F)F)cc1F [N-[4-(4-chlorophenyl)(1,3-thiazol-2-yl)][2-fluoro-4-(trifluoromethyl)phenyl]-carboxamide] | elevate cellular expression of the ABCA-1 gene
CN(C)c1ccc(C(=O)NC2=NC(=O)CS2)cc1 [[4-(dimethylamino)phenyl]-N-(4-oxo(1,3-thiazolin-2-yl))carboxamide] | elevate cellular expression of the ABCA-1 gene
CCOC(=O)C1=C(NCCc2ccccc2)CCN(C(=O)c2ccc(F)cc2)C1 [ethyl 1-[(4-fluorophenyl)carbonyl]-4-[(2-phenylethyl)amino]-1,2,5,6-tetrahydropyridine-3-carboxylate] | elevate cellular expression of the ABCA-1 gene

Molecule | cellular expression of the ABCA-1 gene
O=C1CSC(NC(=O)c2cccc(F)c2)=N1 [(3-fluorophenyl)-N-(4-oxo(1,3-thiazolin-2-yl))carboxamide] | elevate cellular expression of the ABCA-1 gene
Cc1c(Nc2nc(-c3ccc4ccccc4c3)cs2)cccc1C(=O)O [2-methyl-3-[(4-(2-naphthyl)(1,3-thiazol-2-yl))amino]benzoic acid] | elevate cellular expression of the ABCA-1 gene
CCn1c2ccccc2c2cc(NC(=O)c3ccc(OC)cc3)ccc21 [N-(9-ethylcarbazol-3-yl)(4-methoxyphenyl)carboxamide] | elevate cellular expression of the ABCA-1 gene
Cc1ccc(C(=O)NC2=NCCS2)cc1 [(4-methylphenyl)-N-(1,3-thiazolin-2-yl)carboxamide] | elevate cellular expression of the ABCA-1 gene
Cc1cc(C)c2ccc(NC(=O)c3ccc(Cl)cc3)nc2n1 [N-(5,7-dimethylpyridino[3,2-e]pyridin-2-yl)(4-chlorophenyl)carboxamide] | elevate cellular expression of the ABCA-1 gene
CCCCCCCC(=O)N1CCC2(CC1)OCCO2 [1-(8-aza-1,4-dioxaspiro[4.5]dec-8-yl)octan-1-one] | elevate cellular expression of the ABCA-1 gene
O=C(Nc1nccs1)c1ccc(C(F)(F)F)cc1 [4-trifluoromethylphenyl-N-(1,3-thiazol-2-yl)carboxamide] | elevate cellular expression of the ABCA-1 gene
CCOC(=O)C1=C(NCCc2ccccc2)CCN(C(=O)c2ccc([N+](=O)[O-])cc2Cl)C1 [ethyl 1-[(2-chloro-4-nitrophenyl)carbonyl]-4-[(2-phenylethyl)amino]-1,2,5,6-tetrahydropyridine-3-carboxylate] | elevate cellular expression of the ABCA-1 gene
[4-(methylethyl)phenyl]-N-(4-oxo(1,3-thiazolin-2-yl))carboxamide | elevate cellular expression of the ABCA-1 gene
Cc1ccc(-c2csc(-n3ncc(C(=O)NC4CC4)c3C(C)C)n2)cc1 [5-isopropyl-1-(4-p-tolyl-thiazol-2-yl)-1H-pyrazole-4-carboxylic acid cyclopropylamide] | elevate cellular expression of the ABCA-1 gene
O=C(Nc1ncc(-c2ccc(F)cc2)s1)C1CC1 [cyclopropyl-N-[5-(4-fluorophenyl)(1,3-thiazol-2-yl)]carboxamide] | elevate cellular expression of the ABCA-1 gene
COc1cc(C(=O)NC2=NC(=O)CS2)cc(OC)c1OC [(3,4,5-trimethoxyphenyl)-N-(4-oxo(1,3-thiazolin-2-yl))carboxamide] | elevate cellular expression of the ABCA-1 gene
O=C(Nc1nc(-c2ccc3ccccc3c2)cs1)C1CCCC1 [cyclopentyl-N-(4-(2-naphthyl)(1,3-thiazol-2-yl))carboxamide] | elevate cellular expression of the ABCA-1 gene
CC(C)(C)c1ccc(C(=O)NC2=NC(C(=O)O)CS2)cc1 (stereo not shown) [2-{[4-(tert-butyl)phenyl]carbonylamino}-1,3-thiazoline-4-carboxylic acid] | elevate cellular expression of the ABCA-1 gene
CSC(N)=N/N=C/c1ccc(Cl)cc1 [(1 Z,3E)-2,3-diaza-4-(4-chlorophenyl)-1-methylthiobuta-1,3-dienylamine] | elevate cellular expression of the ABCA-1 gene
CCOc1ccc2nc(NC(=O)NC(C)(C)C)sc2c1 [[t-butylamino]-N-(6-ethoxybenzothiazol-2-yl)carboxamide] | elevate cellular expression of the ABCA-1 gene
O=C(NCCc1ccccn1)c1ccccc1Cl [(2-chlorophenyl)-N-(2-(2-pyridyl)ethyl)carboxamide] | elevate cellular expression of the ABCA-1 gene
O=C(Nc1ccc(F)cc1)c1cc2ccccc2oc1=O [N-(4-fluorophenyl)(2-oxochromen-3-yl)carboxamide] | elevate cellular expression of the ABCA-1 gene
CC(C)(C)c1ccc(C(=O)Nc2ccc3c(c2)OCCO3)cc1 [N-(2H,3H-benzo[e]1,4-dioxin-6-yl)[4-(tert-butyl)phenyl]carboxamide] | elevate cellular expression of the ABCA-1 gene
CCc1ccc(C(=O)NCCN(C(=O)Nc2ccc([N+](=O)[O-])cc2)c2ccccc2)cc1 [(4-ethylphenyl)-N-(2-{[N-(4-nitrophenyl)carbamoyl]phenylamino}ethyl)carboxamide] | elevate cellular expression of the ABCA-1 gene
